Experimental findings from PubChem BioAssay (NCI) are described below.

Each structure is given as a SMILES string. Values joined by “and” are separate entries in the source; they are usually repeats but may differ in a detail not shown here. Equal entries are not always repeated.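 Dose response: 5 concentrations. Exposure: 48 h. Format: 96-well plates. Endpoint: linear interpolation; highest concentration if not reached. GI50 marks 50% less growth. TGI is the concentration that stops growth completely.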

Some test systems named below: CCRF-CEM leukemia; IGROV1 ovarian; MDA-MB-231 breast; NCI-H226 lung; NCI-H23 lung; OVCAR-8 ovarian; SF-539 CNS; SN12C renal; SW-620 colon; UACC-62 melanoma.
Common to all, as to experiment: NCI tumour cell line growth inhibition, 48 h

Consider `CCc1nc(-n2c(-c3ccccc3)nc3ccccc3c2=O)nc(N)c1-c1ccc(Cl)cc1`, for which the GI50 in the experiment on CCRF-CEM leukemia was 9.94 µM; in the experiment with IGROV1 ovarian, 27.1 µM; with MDA-MB-231 breast, over 100 µM; with NCI-H226 lung, 69.2 µM; with NCI-H23 lung, 2.9 µM; in the experiment on OVCAR-8 ovarian, 7.96 µM. Besides, the GI50 is 23.7 µM with SF-539 CNS, 15.6 µM in the experiment on SN12C renal, 4.64 µM in the experiment with SW-620 colon and 6.55 µM in the experiment on UACC-62 melanoma. Besides, the TGI in the experiment with CCRF-CEM leukemia was over 100 µM; in the experiment on IGROV1 ovarian it was over 100 µM; with MDA-MB-231 breast, over 100 µM; in the experiment on NCI-H226 lung, over 100 µM; in the experiment on NCI-H23 lung, 39.7 µM; in the experiment with OVCAR-8 ovarian, over 100 µM. Besides, the TGI with SF-539 CNS, in the experiment with SN12C renal, in the experiment with SW-620 colon and in the experiment on UACC-62 melanoma was over 100 µM throughout.

Regarding `N#Cc1c2c(c(-c3cccs3)n(C3OC(CO)C(O)C(O)C3O)c1=S)CCc1ccccc1-2` (configuration not stated), the TGI in the experiment with CCRF-CEM leukemia, with IGROV1 ovarian, with MDA-MB-231 breast, in the experiment on NCI-H226 lung, in the experiment with NCI-H23 lung and with OVCAR-8 ovarian was over 100 µM each time. Also, the TGI with SF-539 CNS, in the experiment with SN12C renal, in the experiment with SW-620 colon and with UACC-62 melanoma was over 100 µM throughout. Further, the GI50 with MDA-MB-231 breast was 15.5 µM and 37.3 µM; with NCI-H23 lung, 13.5 µM and > 39.3 µM.

`CC(=O)N1CCN(CCOc2ccc(C3CCN(C4=Nn5c(nnc5C(F)(F)F)CC4)CC3)cc2)CC1`: the GI50 in the experiment on CCRF-CEM leukemia is 20.4 µM; with IGROV1 ovarian it was 17.4 µM; in the experiment with MDA-MB-231 breast it was 7.83 µM; in the experiment on NCI-H226 lung, 34.8 µM; in the experiment on NCI-H23 lung, 11.4 µM; with OVCAR-8 ovarian it was 36 µM. For the same compound, the GI50 in the experiment with SF-539 CNS is 22.5 µM; in the experiment on SN12C renal, 14.5 µM; in the experiment on SW-620 colon, over 100 µM; in the experiment on UACC-62 melanoma it was 2.84 µM. The TGI with CCRF-CEM leukemia, in the experiment on IGROV1 ovarian, with MDA-MB-231 breast, in the experiment on NCI-H226 lung, in the experiment on NCI-H23 lung and in the experiment on OVCAR-8 ovarian was over 100 µM each time. Also, the TGI with SF-539 CNS, with SN12C renal, with SW-620 colon and with UACC-62 melanoma was over 100 µM throughout.

`O=C(CCl)Nc1cc(O)c2c(c1)C(=O)c1cccc(O)c1C2=O`: the GI50 was 0.314 µM in the experiment with CCRF-CEM leukemia; 0.942 µM in the experiment with IGROV1 ovarian; 1.91 µM in the experiment with MDA-MB-231 breast; 1.31 µM in the experiment on NCI-H226 lung; 1.13 µM in the experiment on NCI-H23 lung; 2.09 µM in the experiment with OVCAR-8 ovarian. The GI50 with SF-539 CNS was 2.29 µM; in the experiment with SN12C renal, 0.68 µM; in the experiment on SW-620 colon, 1.1 µM; with UACC-62 melanoma it was 1.47 µM. In addition, the TGI was determined as 3.24 µM in the experiment on CCRF-CEM leukemia; 3.13 µM with IGROV1 ovarian; 5.88 µM in the experiment on MDA-MB-231 breast; 4.93 µM in the experiment on NCI-H226 lung; 3.45 µM in the experiment on NCI-H23 lung; 7.65 µM in the experiment with OVCAR-8 ovarian. The TGI with SF-539 CNS came to 6.6 µM; in the experiment on SN12C renal, 1.98 µM; with SW-620 colon it was 3.95 µM; in the experiment with UACC-62 melanoma, 3.84 µM.

With `COc1ccc2c(c1)CC[C@@H]1[C@@H]2CC[C@]2(C)C=C(/C=C/C(=O)c3ccccc3)C[C@@H]12`, the GI50 was 32.6 µM in the experiment on CCRF-CEM leukemia; 13.3 µM in the experiment on IGROV1 ovarian; 17.2 µM with MDA-MB-231 breast; 17.1 µM with NCI-H226 lung; 15.4 µM in the experiment on NCI-H23 lung; 31.2 µM in the experiment on OVCAR-8 ovarian. The GI50 with SF-539 CNS was 17.4 µM; in the experiment with SN12C renal it was 18.5 µM; in the experiment on SW-620 colon, 15.4 µM; in the experiment on UACC-62 melanoma, 13.8 µM. The TGI was 84.7 µM in the experiment on CCRF-CEM leukemia; 27.4 µM in the experiment on IGROV1 ovarian; 32.1 µM in the experiment on MDA-MB-231 breast; 33.6 µM in the experiment on NCI-H226 lung; 30.8 µM in the experiment on NCI-H23 lung; over 100 µM in the experiment on OVCAR-8 ovarian. Besides, the TGI was found to be 32.4 µM in the experiment with SF-539 CNS, 33.4 µM with SN12C renal, 30.2 µM in the experiment on SW-620 colon and 27.2 µM in the experiment with UACC-62 melanoma.

Consider `CCCn1c(N)c(C(=O)CNc2ccc(I)cc2)c(=O)[nH]c1=O`, for which the GI50 in the experiment with CCRF-CEM leukemia is 0.543 µM; with IGROV1 ovarian, 18 µM; with MDA-MB-231 breast it was 24.5 µM; with NCI-H226 lung it was 12.9 µM; in the experiment with NCI-H23 lung, over 61.4 µM; with OVCAR-8 ovarian, 4.72 µM. Also, the GI50 in the experiment on SF-539 CNS was 0.84 µM; with SN12C renal, 29.2 µM; in the experiment with SW-620 colon, 2.89 µM; in the experiment on UACC-62 melanoma it was 1.15 µM. Further, the TGI with CCRF-CEM leukemia, in the experiment on IGROV1 ovarian, in the experiment on MDA-MB-231 breast, in the experiment with NCI-H226 lung, in the experiment on NCI-H23 lung and in the experiment with OVCAR-8 ovarian was over 100 µM in each case. The TGI was over 45.6 µM with SF-539 CNS, over 100 µM in the experiment with SN12C renal, over 100 µM in the experiment on SW-620 colon and over 100 µM in the experiment with UACC-62 melanoma.

As for `CC[C@H](NC(=O)[C@H](CS(=O)(=O)CC1CC1)N[C@@H](c1ccc(F)cc1)C(F)(F)F)C(=O)C(=O)NC1CC1`, the GI50 with CCRF-CEM leukemia is over 100 µM; in the experiment on IGROV1 ovarian, over 100 µM; with MDA-MB-231 breast it was 93.1 µM; in the experiment on NCI-H226 lung it was over 100 µM; with NCI-H23 lung, over 100 µM; in the experiment with OVCAR-8 ovarian, over 100 µM. Further, the GI50 with SF-539 CNS, in the experiment with SN12C renal, in the experiment with SW-620 colon and with UACC-62 melanoma was over 100 µM in each case. The TGI in the experiment with CCRF-CEM leukemia, with IGROV1 ovarian, in the experiment with MDA-MB-231 breast, in the experiment on NCI-H226 lung, with NCI-H23 lung and in the experiment with OVCAR-8 ovarian was over 100 µM throughout. The TGI with SF-539 CNS, in the experiment on SN12C renal, in the experiment with SW-620 colon and with UACC-62 melanoma was over 100 µM in each case.

As for `O=C(c1ccccc1)C1C(C(=O)c2ccccc2)C(c2ccccc2)N(c2ccccc2)C1c1ccccc1` (configuration not stated), the TGI with CCRF-CEM leukemia, in the experiment with IGROV1 ovarian, in the experiment with MDA-MB-231 breast, in the experiment with NCI-H226 lung, in the experiment with NCI-H23 lung and in the experiment with OVCAR-8 ovarian was over 100 µM throughout. Further, the TGI in the experiment on SF-539 CNS, with SN12C renal, in the experiment with SW-620 colon and with UACC-62 melanoma was over 100 µM throughout.
